Measurements as given in US10597388B2, “Pyridazinone herbicides” (FMC CORPORATION, priority 2014, dated 2020).

Tests used:
Test in all cases: Test C greenhouse herbicide test, pre- and postemergence
Assay type in all cases: in vivo
[1] = test system: velvetleaf (Abutilon theophrasti)
How it was run: (§1)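 Pre- and postemergence greenhouse screen; values are visual control ratings, 0 meaning no effect and 100 complete kill, assigned relative to untreated plants after 13 to 15 d.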

[2] = test system: lambsquarters (Chenopodium album)
How it was run: as §1

[3] = test system: ragweed (common ragweed, Ambrosia elatior)
How it was run: as §1

[4] = test system: barnyardgrass (Echinochloa crus-galli)
How it was run: as §1

[5] = test system: galium (catchweed bedstraw, Galium aparine); details: for Plant response rating, Galium: Postemergence; for Galium plant response rating: postemergence, 62 g ai/ha
How it was run: as §1

[6] = test system: oilseed rape (Brassica napus)
How it was run: as §1

soybean (Glycine max) = test system: soybean (Glycine max)
How it was run: as §1

[7] = test system: johnsongrass (Sorghum halepense)
How it was run: as §1

[8] = test system: foxtail, giant (giant foxtail, Setaria faberii)
How it was run: as §1

[9] = test system: pigweed (Amaranthus retroflexus)
How it was run: as §1

[10] = test system: blackgrass (Alopecurus myosuroides)
How it was run: as §1

[11] = test system: crabgrass, large (large crabgrass, Digitaria sanguinalis)
How it was run: as §1

[12] = test system: morningglory (Ipomoea coccinea)
How it was run: as §1

[13] = test system: nutsedge, yellow (yellow nutsedge, Cyperus esculentus)
How it was run: as §1

[14] = test system: waterhemp (common waterhemp, Amaranthus rudis)
How it was run: as §1

[15] = test system: wheat (winter wheat, Triticum aestivum)
How it was run: as §1

[16] = Postemergence, 125 g ai/ha, scale 0 to 100, 0 is no effect, 100 is complete control
[17] = Postemergence, 250 g ai/ha, scale 0 to 100, 0 no effect, 100 complete control, 13 to 15 d
[18] = Preemergence, 31 g ai/ha, scale 0 to 100, 0 is no effect, 100 is complete control
[19] = Preemergence, 62 g ai/ha, scale 0 to 100, 0 is no effect, 100 is complete control
[20] = Preemergence, 125 g ai/ha, scale 0 to 100, 0 is no effect, 100 is complete control
[21] = Preemergence, 250 g ai/ha, scale 0 to 100 (0 no effect, 100 complete control)
[22] = postemergence, 62 g ai/ha, scale 0 to 100, 0 no effect, 100 complete control
[23] = Postemergence, 31 g ai/ha, 0 to 100 scale (0 no effect, 100 complete control)
[24] = 125 g ai/ha, scale 0 to 100, 0 is no effect, 100 is complete control
[25] = 250 g ai/ha, scale 0 to 100, 0 no effect, 100 complete control, 13 to 15 d
[26] = scale 0 to 100, 0 no effect, 100 complete control

CC(=O)Oc1c(C)nn(C)c(=O)c1-c1ccc(F)c2ccccc12 [Compound 90]
0: Plant response rating, Oilseed Rape [6, 16] | Oilseed Rape plant response rating [6, 22] | Plant response rating, Soybean (soybean (Glycine max); [18]) | Plant response rating, Soybean (soybean (Glycine max); [19]) | Plant response rating, Wheat [15, 19]
80: Plant response rating, Lambsquarters [2, 19] | Plant response rating, Ragweed [3, 18] | Pigweed plant response rating [9, 22] | Nutsedge, Yellow plant response rating [13, 22]
75: Velvetleaf plant response rating [1, 22] | Plant response rating, Lambsquarters [2, 18] | Plant response rating, Barnyardgrass [4, 20] | Plant response rating, Foxtail, Giant [8, 17] | Plant response rating, Foxtail, Giant [8, 18] | Plant response rating, Foxtail, Giant [8, 19] | Plant response rating, Crabgrass, Large [11, 17] | Plant response rating, Crabgrass, Large [11, 20] | Plant response rating, Waterhemp [14, 18]
55: Plant response rating, Soybean (soybean (Glycine max); [16]) | Plant response rating, Johnsongrass [7, 19] | Plant response rating, Foxtail, Giant [8, 16] | Blackgrass plant response rating [10, 21] | Plant response rating, Nutsedge, Yellow [13, 18]
100: Plant response rating, Lambsquarters [2, 17] | Lambsquarters plant response rating [2, 21] | Plant response rating, Ragweed [3, 17] | Soybean plant response rating (soybean (Glycine max); [21]) | Plant response rating, Pigweed [9, 17] | Plant response rating, Pigweed [9, 18] | Plant response rating, Pigweed [9, 19] | Plant response rating, Pigweed [9, 20] | Pigweed plant response rating [9, 21] | Plant response rating, Morningglory [12, 16] | Plant response rating, Morningglory [12, 17] | Morningglory plant response rating [12, 22] | Plant response rating, Waterhemp [14, 16] | Plant response rating, Waterhemp [14, 17] | Plant response rating, Waterhemp [14, 20] | Waterhemp plant response rating [14, 21] | Waterhemp plant response rating [14, 22]
65: Plant response rating, Barnyardgrass [4, 19] | Johnsongrass plant response rating [7, 21]
20: Plant response rating, Johnsongrass [7, 17]
40: Plant response rating, Blackgrass [10, 17] | Plant response rating, Blackgrass [10, 19] | Wheat plant response rating [15, 21]
45: Plant response rating, Nutsedge, Yellow [13, 19]
90: Plant response rating, Velvetleaf [1, 19] | Plant response rating, Ragweed [3, 19] | Oilseed Rape plant response rating [6, 21] | Plant response rating, Foxtail, Giant [8, 20] | Plant response rating, Nutsedge, Yellow [13, 16] | Nutsedge, Yellow plant response rating [13, 21] | Plant response rating, Waterhemp [14, 19]
85: Plant response rating, Velvetleaf [1, 18] | Plant response rating, Lambsquarters [2, 20] | Plant response rating, Ragweed [3, 20] | Ragweed plant response rating [3, 22] | Crabgrass, Large plant response rating [11, 21] | Plant response rating, Morningglory [12, 18] | Plant response rating, Morningglory [12, 19] | Plant response rating, Nutsedge, Yellow [13, 17] | Plant response rating, Nutsedge, Yellow [13, 20]
30: Barnyardgrass plant response rating [4, 23] | Plant response rating, Oilseed Rape [6, 18] | Plant response rating, Wheat [15, 17]
25: Foxtail, Giant plant response rating [8, 22] | Plant response rating, Blackgrass [10, 16] | Plant response rating, Blackgrass [10, 18]
35: Plant response rating, Barnyardgrass [4, 18] | Barnyardgrass plant response rating [4, 22] | Plant response rating, Oilseed Rape [6, 19] | Plant response rating, Crabgrass, Large [11, 16] | Plant response rating, Crabgrass, Large [11, 18] | Plant response rating, Wheat [15, 20]
15: Blackgrass plant response rating [10, 22] | Crabgrass, Large plant response rating [11, 22]
95: Plant response rating, Velvetleaf [1, 20] | Velvetleaf plant response rating [1, 21] | Plant response rating, Ragweed [3, 16] | Ragweed plant response rating [3, 21] | Barnyardgrass plant response rating [4, 21] | Plant response rating, Galium [5, 24] | Plant response rating, Galium [5, 25] | Galium plant response rating [5, 26] | Foxtail, Giant plant response rating [8, 21] | Plant response rating, Pigweed [9, 16]
70: Plant response rating, Barnyardgrass [4, 17] | Plant response rating, Soybean (soybean (Glycine max); [17]) | Plant response rating, Crabgrass, Large [11, 19]
98: Plant response rating, Velvetleaf [1, 16] | Plant response rating, Velvetleaf [1, 17] | Plant response rating, Lambsquarters [2, 16] | Lambsquarters plant response rating [2, 22] | Plant response rating, Morningglory [12, 20] | Morningglory plant response rating [12, 21]
50: Plant response rating, Barnyardgrass [4, 16] | Plant response rating, Oilseed Rape [6, 20] | Soybean plant response rating (soybean (Glycine max); [22]) | Plant response rating, Johnsongrass [7, 18] | Plant response rating, Blackgrass [10, 20]
60: Plant response rating, Johnsongrass [7, 20]
10: Plant response rating, Soybean (soybean (Glycine max); [20]) | Plant response rating, Johnsongrass [7, 16] | Johnsongrass plant response rating [7, 22] | Blackgrass plant response rating [10, 23] | Plant response rating, Wheat [15, 16] | Wheat plant response rating [15, 22]
5: Plant response rating, Oilseed Rape [6, 17] | Plant response rating, Wheat [15, 18]

CC(=O)Oc1c(C#N)nn(C)c(=O)c1-c1c(C)ccc2ccccc12 [Compound 98]
70: Velvetleaf plant response rating [1, 22] | Plant response rating, Blackgrass [10, 17] | Plant response rating, Crabgrass, Large [11, 17]
95: Galium plant response rating [5, 26] | Foxtail, Giant plant response rating [8, 22]
60: Barnyardgrass plant response rating [4, 23] | Plant response rating, Nutsedge, Yellow [13, 17]
50: Plant response rating, Blackgrass [10, 16] | Plant response rating, Nutsedge, Yellow [13, 16]
25: Plant response rating, Oilseed Rape [6, 17] | Plant response rating, Soybean (soybean (Glycine max); [16]) | Plant response rating, Soybean (soybean (Glycine max); [17]) | Crabgrass, Large plant response rating [11, 22]
5: Johnsongrass plant response rating [7, 22] | Blackgrass plant response rating [10, 23]
45: Plant response rating, Crabgrass, Large [11, 16]
98: Plant response rating, Ragweed [3, 16] | Ragweed plant response rating [3, 22] | Plant response rating, Barnyardgrass [4, 16] | Plant response rating, Barnyardgrass [4, 17] | Plant response rating, Galium [5, 24] | Plant response rating, Galium [5, 25] | Plant response rating, Foxtail, Giant [8, 16]
75: Plant response rating, Velvetleaf [1, 16]
0: Oilseed Rape plant response rating [6, 22]
85: Barnyardgrass plant response rating [4, 22]
10: Plant response rating, Oilseed Rape [6, 16] | Soybean plant response rating (soybean (Glycine max); [22]) | Plant response rating, Johnsongrass [7, 16] | Plant response rating, Johnsongrass [7, 17] | Wheat plant response rating [15, 22]
30: Blackgrass plant response rating [10, 22] | Plant response rating, Wheat [15, 17]
100: Plant response rating, Velvetleaf [1, 17] | Plant response rating, Lambsquarters [2, 16] | Plant response rating, Lambsquarters [2, 17] | Lambsquarters plant response rating [2, 22] | Plant response rating, Ragweed [3, 17] | Plant response rating, Foxtail, Giant [8, 17] | Plant response rating, Pigweed [9, 16] | Plant response rating, Pigweed [9, 17] | Pigweed plant response rating [9, 22] | Plant response rating, Morningglory [12, 16] | Plant response rating, Morningglory [12, 17] | Morningglory plant response rating [12, 22] | Plant response rating, Waterhemp [14, 16] | Plant response rating, Waterhemp [14, 17] | Waterhemp plant response rating [14, 22]
15: Nutsedge, Yellow plant response rating [13, 22] | Plant response rating, Wheat [15, 16]

COc1nn(C)c(=O)c(-c2c(C)sc3ccc(Cl)cc23)c1O [Compound 100]
65: Plant response rating, Velvetleaf [1, 17]
60: Oilseed Rape plant response rating [6, 22]
15: Plant response rating, Crabgrass, Large [11, 17] | Crabgrass, Large plant response rating [11, 22]
45: Foxtail, Giant plant response rating [8, 22]
50: Velvetleaf plant response rating [1, 22] | Plant response rating, Nutsedge, Yellow [13, 17]
85: Pigweed plant response rating [9, 22]
100: Plant response rating, Pigweed [9, 16] | Plant response rating, Pigweed [9, 17] | Plant response rating, Morningglory [12, 16] | Plant response rating, Morningglory [12, 17] | Morningglory plant response rating [12, 22]
90: Lambsquarters plant response rating [2, 22] | Plant response rating, Oilseed Rape [6, 17] | Plant response rating, Foxtail, Giant [8, 17] | Waterhemp plant response rating [14, 22]
10: Barnyardgrass plant response rating [4, 23] | Plant response rating, Oilseed Rape [6, 16] | Plant response rating, Johnsongrass [7, 17]
0: Johnsongrass plant response rating [7, 22] | Plant response rating, Wheat [15, 16] | Wheat plant response rating [15, 22]
20: Plant response rating, Nutsedge, Yellow [13, 16]
95: Plant response rating, Ragweed [3, 16] | Ragweed plant response rating [3, 22] | Plant response rating, Galium [5, 24] | Plant response rating, Galium [5, 25] | Galium plant response rating [5, 26] | Plant response rating, Waterhemp [14, 16]
5: Plant response rating, Soybean (soybean (Glycine max); [16]) | Plant response rating, Soybean (soybean (Glycine max); [17]) | Soybean plant response rating (soybean (Glycine max); [22]) | Plant response rating, Johnsongrass [7, 16] | Blackgrass plant response rating [10, 23] | Plant response rating, Blackgrass [10, 16] | Blackgrass plant response rating [10, 22] | Plant response rating, Wheat [15, 17]
98: Plant response rating, Lambsquarters [2, 16] | Plant response rating, Lambsquarters [2, 17] | Plant response rating, Ragweed [3, 17] | Plant response rating, Waterhemp [14, 17]
40: Plant response rating, Velvetleaf [1, 16] | Plant response rating, Barnyardgrass [4, 17]
75: Plant response rating, Foxtail, Giant [8, 16]
25: Barnyardgrass plant response rating [4, 22] | Plant response rating, Blackgrass [10, 17] | Plant response rating, Crabgrass, Large [11, 16] | Nutsedge, Yellow plant response rating [13, 22]
30: Plant response rating, Barnyardgrass [4, 16]
